Experimental data taken from patent US11542304B2, “Multimeric bicyclic peptide ligands” (BicycleTx Limited, priority 2018, dated 2023).

Assays:
CD137 [1] = target: T1, CD137 (Homo sapiens, UniProt Q07011); assay: CD137 Promega reporter cell activity assay (NF-κB luciferase in Jurkat cells)
Description: CD137 binding multimers were evaluated for CD137 using a Reporter cell activity assay that uses NF-κB luciferase luminescence as a read-out of CD137 activation in Jurkat cells. […] Samples were diluted at concentration expected to give the maximum fold induction and then titrated down in 1/3 dilution series or 1/10 dilution series in a sterile 96 well-plate. […] 50 μl cells were added per well to white cell culture plates.
Cells were co-incubated together with agonists for 6 h at 37° C., 5% CO2. After 6 h Bio-Glo™ was thawed and the assay developed at room-temperature. 75 ul Bio-Glo™ was added per well and incubated for 5-10 min. Luciferase signal was read on a Pherastar plate-reader using MARS program. Data was analysed by transforming the data to x=log (X), then plotting log (agonist) vs. response variable slope (4 parameters) to calculate EC50 values.

[2] = test system: melanoma patient tumour samples; assay: Ex vivo human tumour cell kill assay (3D spheroid culture); conditions: 48 hours
Description: Two frozen, dissociated melanoma patient tumour samples were purchased from Folio Conversant. Cells were thawed quickly at 37° C. and pipetted into 10 mL of Wash Medium [DMEM/F12+1× Penicillin/Streptomycin+50 μg/mL Gentamycin+100 μg/mL G418+100 μg/mL Hygromycin+1× Insulin-Transferrin-Selenium (ITS)+10 mM HEPES] with 1 mg/mL DNaseI added fresh. Cell counts were performed using a haemocytometer and a 1:2 dilution with 0.04% Trypan blue. Cells were spun down and resuspended in Growth Medium [EmbryoMax DMEM+10% heat-inactivated FBS+1× Penicillin/Streptomycin+50 μg/mL Gentamycin+1× GlutaMAX+1 mM Sodium pyruvate+1×ITS+0.4% BSA+4.5 g/L glucose+2.3 g/L sodium bicarbonate+10 mM HEPES+10 ng/mL basic fibroblast growth factor (bFGF)+20 ng/mL epidermal growth factor (EGF)] at 5×10^5 cells/mL. Cells were magnetized as described in the N3D Biosciences manufacturer's protocol. Briefly, NanoShuttle (NS) is added at 1 μL to 1×10^4 cells and mixed in by pipetting. […] Flow cytometry panels used in this experiment analysed the number of lymphocytes and tumour cells present on Days 0 and 2. Tumour cell killing was determined by the decrease in the number of CD45 negative cells in the treated wells versus the untreated control (FIG. 12)—significance was calculated using a 2-way ANOVA.

[3] = Pharmacokinetics of Bicycle multimers in CD-1 mice; conditions: 5 mg/kg IV, male CD-1 mice; FIGS. 5A and 5B
Description: Male CD-1 mice were dosed with 5 mg/kg of each Bicycle multimer formulated in 25 mM Histidine HCl, 10% sucrose pH 7 via tail vein injection. Serial bleeding (about 80 μL blood/time point) was performed via submandibular or saphenous vein at each time point. All blood samples were immediately transferred into prechilled microcentrifuge tubes containing 2 μL K2-EDTA (0.5M) as anti-coagulant and placed on wet ice. Blood samples were immediately processed for plasma by centrifugation at approximately 4° C., 3000 g. The precipitant including internal standard was immediately added into the plasma, mixed well and centrifuged at 12,000 rpm, 4° C. for 10 minutes. The supernatant was transferred into pre-labeled polypropylene microcentrifuge tubes, and then quick-frozen over dry ice. The samples were stored at 70° C. or below as needed until analysis. 7.5 μL of the supernatant samples were directly injected for LC-MS/MS analysis using an Orbitrap Q Exactive in positive ion mode to determine the concentrations of Bicycle multimer. Plasma concentration versus time data were analyzed by non-compartmental approaches using the Phoenix WinNonlin 6.3 software program. C0, Cl, Vdss, T1/2, AUC(0-last), AUC(0-inf), MRT(0-last), MRT(0-inf) and graphs of plasma concentration versus time profile were reported.

[4] = test system: Pan T-cells (isolated from human PBMCs); assay: T-cell cytokine release assay; type: cell-based; conditions: anti-CD3 stimulated T cells, 48 hours; FIG. 14
Description: Healthy human buffy coat was purchased from the Sylvan N. Goldman Oklahoma Blood Institute and shipped fresh. Peripheral blood mononuclear cells (PBMCs) were isolated by Ficoll density gradient centrifugation. Red blood cells were lysed with ACK (Ammonium-Chloride-Potassium) lysis buffer. Pan T-cells were then isolated from total PBMCs using negative magnetic bead selection (Miltenyi MACS human Pan-T cell isolation kit). Pan T-cells were then plated on anti-CD3 coated 96-well plates (0.5 μg/mL) in culture media (RPMI1640 with 10% FBS) plus or minus compounds. Supernatant from cultures was collected after 24 and 48 hours. Cytokine [i.e., interleukin-2 (IL-2), interferon gamma (IFNγ)] release in supernatant was measured by HTRF assay (CisBio) according to the kit's instructions. HTRF assay plates were read on a Clariostar plate reader (BMG Labtech) at 665 nm and 620 nm. Data was analyzed and extrapolated to a standard curve according to the HTRF kit instruction in Prism and Excel. Cytokine release fold change was calculated by dividing the pg/mL of cytokine detected by background cytokine released (CD3 stimulation alone). Data was graphed in Prism as the mean of replicates with standard deviation error bars.

MC38 syngeneic tumors = assay: In vivo efficacy in MC38 syngeneic tumors in C57BL/6J B-h4-1BB humanized mice; conditions: 20 or 30 mg/kg i.v. QAD × 6; compared to CD137 monoclonal antibody agonist; FIG. 7
Description: The MC38 murine colon carcinoma cell line was purchased from Shunran Shanghai Biological Technology Co., Ltd. The cells will be maintained in vitro as monolayer culture in Dulbecco's Modified Eagle's medium (DMEM) supplemented with 10% heat inactivated fetal calf serum, 100 U/mL penicillin and 100 μg/mL streptomycin at 37° C. in an atmosphere of 5% CO2. The tumor cells will be routinely subcultured twice weekly by trypsin-EDTA treatment. Cells growing in an exponential growth phase will be harvested and counted for tumor inoculation. 6-8 week old female C57BL/6J B-h4-1BB humanized mice were subcutaneously injected (in the flank) with MC38 tumor cells (5×10^5) with 0.1 mL PBS for tumor development. Tumor-bearing animals were randomly enrolled into six study groups when the mean tumor size reached approximately 113 mm^3 (Study 1) or 107 mm^3 (Study 2). The test and positive control articles were administrated to the tumor-bearing mice according to predetermined regimens as shown below.
Test articles were formulated in aqueous vehicle (25 mM Histidine, 10% sucrose pH=7) and administered intravenously or intraperitoneally. CD137 monoclonal antibody agonist was administered by intraperitoneal injection in 0.9% saline.
Tumor volume was measured three times a week in two dimensions using a caliper, and the volume was expressed in mm3 using the formula: V=0.5a×b2 where a and b were the long and short diameters of the tumor, respectively. Results are represented by mean and the standard deviation (Mean±SD).
In study 2, mice were sacrificed 21 days after treatment initiation and tumors were harvested for T-cell analysis by flow cytometry. Tumor were cut into small pieces and filtered through a 70 micrometer filter. Lymphocytes were isolated using Histopaque 1083 and resuspended in RPMI 1640 supplemented with 10% fetal bovine serum. Lymphocytes were stained with a cell viability dye (Zombie NIR, Biolegend, #423106) and a panel of antibodies including anti-mouse CD45 (Biolegend, #103138), anti-mouse CD3 (Biolegend, #100328), anti-mouse CD4 (Biolegend, #100438), anti-mouse CD8 (Biolegend, #100759). Stained cells were analysed by Attune N×T Flow Cytometer. T-cell results are expressed as % of CD3+ cells among CD45+ cells. CD8+ T-cell results are expressed as % of CD8+ cells among CD45+CD3+ cells. CD4+ T-cell results are expressed as % of CD4+ cells among CD45+CD3+ cells. Results are represented by mean and the standard deviation (Mean±SD) and the individual values.
Statistical analysis: Data was analyzed using 2way ANOVA or ordinary One-way ANOVA with Dunnett's test for multiple comparisons, and P<0.05 was considered to be statistically significant. Both statistical analysis and biological observations are taken into consideration. ***p<0.001, **p<0.01, *p<0.05.

CD137 [5] = target: T1, CD137; assay: CD137 reporter cell activity washout assay; type: cell-based; set-up: host or cells: Jurkat cells; conditions: 10 nM, exposure 30, 60 or 120 minutes, total 6 hours; FIG. 13
Description: Jurkat cells engineered to overexpress CD137 and express a luciferase gene under the NF-κB promoter were purchased from Promega. The reporter cells were incubated with 10 nM of CD137 agonists for the indicated times at 37° C. in RPMI1640 media with 1% FBS. After either 30, 60, or 120 minutes, cells were washed in an excess of culture media and resuspended in 75 μL of fresh media. A no washout condition was also included. All washout conditions were performed in duplicate. Cells then continued to incubate for a total of 6 hours (an additional 5.5, 5, or 4 hours respective to exposure times). After incubation, 75 μL of Bio-Glo reagent (Promega) was added to each well and allowed to equilibrate for 10 minutes at room temperature. Luminescence was read on the Clariostar plate reader (BMG LabTech). Fold induction was calculated by dividing the luminescence signal by background wells (reporter cells with no agonist added). The percent of the maximum fold induction was calculated by dividing the fold induction of the washout time by the fold induction of the no washout condition and multiplying by 100.

T1 sequence (Q07011 24-255): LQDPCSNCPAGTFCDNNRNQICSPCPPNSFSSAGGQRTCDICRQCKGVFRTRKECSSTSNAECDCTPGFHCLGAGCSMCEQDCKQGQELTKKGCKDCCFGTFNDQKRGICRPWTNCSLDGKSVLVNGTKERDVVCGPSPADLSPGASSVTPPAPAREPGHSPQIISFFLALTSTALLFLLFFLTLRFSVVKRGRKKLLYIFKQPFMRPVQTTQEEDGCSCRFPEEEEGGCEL

For `CCCC[C@@H]1NC(=O)[C@H](Cc2ccc(O)cc2)NC(=O)[C@@H]2CCCN2C(=O)[C@H](CC(=O)O)NC(=O)[C@H](C)NC(=O)[C@H](Cc2ccccc2)NC(=O)[C@@H]2CSCCC(=O)N3CN(CN(C3)C(=O)CCSC[C@@H](C(=O)N[C@@H](C)C(N)=O)NC1=O)C(=O)CCSC[C@H](NC(=O)[C@H](C)NC(C)=O)C(=O)N[C@@H]([C@@H](C)CC)C(=O)N[C@@H](CCC(=O)O)C(=O)N[C@@H](CCCCNC(=O)CCc1cn(CCOCCOCCOCCOCCOCCOCCOCCOCCOCCOCCOCCOCCOCCOCCOCCOCCOCCOCCOCCOCCOCCOCCOCCNC(=O)CCOCC(COCCC(=O)NCCOCCOCCOCCOCCOCCOCCOCCOCCOCCOCCOCCOCCOCCOCCOCCOCCOCCOCCOCCOCCOCCOCCOCCn3cc(CCC(=O)NCCCC[C@@H]4NC(=O)[C@H](CCC(=O)O)NC(=O)[C@H]([C@@H](C)CC)NC(=O)[C@@H](NC(=O)[C@H](C)NC(C)=O)CSCCC(=O)N5CN6CN(C5)C(=O)CCSC[C@H](NC(=O)[C@H](Cc5ccc(O)cc5)NC(=O)[C@H](CCC(N)=O)NC(=O)CNC4=O)C(=O)N[C@@H](Cc4ccccc4)C(=O)N[C@@H](C)C(=O)N[C@@H](CC(=O)O)C(=O)N4CCC[C@H]4C(=O)N[C@@H](Cc4ccc(O)cc4)C(=O)N[C@@H](CCCC)C(=O)N[C@H](C(=O)N[C@@H](C)C(N)=O)CSCCC6=O)nn3)(COCCC(=O)NCCOCCOCCOCCOCCOCCOCCOCCOCCOCCOCCOCCOCCOCCOCCOCCOCCOCCOCCOCCOCCOCCOCCOCCn3cc(CCC(=O)NCCCC[C@@H]4NC(=O)[C@H](CCC(=O)O)NC(=O)[C@H]([C@@H](C)CC)NC(=O)[C@@H](NC(=O)[C@H](C)NC(C)=O)CSCCC(=O)N5CN6CN(C5)C(=O)CCSC[C@H](NC(=O)[C@H](Cc5ccc(O)cc5)NC(=O)[C@H](CCC(N)=O)NC(=O)CNC4=O)C(=O)N[C@@H](Cc4ccccc4)C(=O)N[C@@H](C)C(=O)N[C@@H](CC(=O)O)C(=O)N4CCC[C@H]4C(=O)N[C@@H](Cc4ccc(O)cc4)C(=O)N[C@@H](CCCC)C(=O)N[C@H](C(=O)N[C@@H](C)C(N)=O)CSCCC6=O)nn3)COCCC(=O)NCCOCCOCCOCCOCCOCCOCCOCCOCCOCCOCCOCCOCCOCCOCCOCCOCCOCCOCCOCCOCCOCCOCCOCCn3cc(CCC(=O)NCCCC[C@@H]4NC(=O)[C@H](CCC(=O)O)NC(=O)[C@H]([C@@H](C)CC)NC(=O)[C@@H](NC(=O)[C@H](C)NC(C)=O)CSCCC(=O)N5CN6CN(C5)C(=O)CCSC[C@H](NC(=O)[C@H](Cc5ccc(O)cc5)NC(=O)[C@H](CCC(N)=O)NC(=O)CNC4=O)C(=O)N[C@@H](Cc4ccccc4)C(=O)N[C@@H](C)C(=O)N[C@@H](CC(=O)O)C(=O)N4CCC[C@H]4C(=O)N[C@@H](Cc4ccc(O)cc4)C(=O)N[C@@H](CCCC)C(=O)N[C@H](C(=O)N[C@@H](C)C(N)=O)CSCCC6=O)nn3)nn1)C(=O)NCC(=O)N[C@@H](CCC(N)=O)C(=O)N[C@@H](Cc1ccc(O)cc1)C(=O)N2` [BCY7838], which “Average Fold EC50 Improvement relative to CD137L” value (CD137 [1]; Average EC50 for CD137L = 14.2 nM) is on record?
Its value is 0.73.

And the “Average Relative Fold Induction relative to CD137L” value (CD137 [1]; Average fold induction for CD137L = 4.0)?
The value was 2.19.

And the “lymphocyte numbers (live CD45 positive cells)” value ([2]; FIG. 12B)?
Its value is “no significant difference between treatments on lymphocyte numbers”.

And the “tumour cell death (live CD45 negative cells)” value ([2]; in one melanoma patient sample, but not the other, FIG. 12A)?
Its value is “significant tumour cell death”.

What about the “systemic elimination (plasma concentration after IV dosing)” value [3] of the same molecule?
Its value is “retain the property of rapid systemic elimination”.

What about the “pro-inflammatory cytokine (IL-2, IFNγ) secretion by T-cells” value [4] of the same molecule?
Its value is “secrete pro-inflammatory cytokines”.

And the “anti-tumor activity (tumor volume), Study 1” value (MC38 syngeneic tumors)?
The value was “elicits a range of anti-tumor activities”.

What about the “cell activity after washout” value (CD137 [5]) of the same molecule?
Its value is “maintain cell activity after washout”.
